Values of other authors, collected in US20140335365A1, “GYPSUM BOARD HAVING MOLD RESISTANCE” (priority 2007, published 2014).
Read-outs that look alike come from different tables or passages of the source.

Structure (SMILES)	water solubility	water solubility (Table 1, anti-mold agents used) [ppm]
Oc1cc(Cl)ccc1Oc1ccc(Cl)cc1Cl [triclosan, 2,4,4′-trichloro-2′-hydroxydiphenylether]	10 ppm	–
Cc1ccc(S(=O)(=O)C(I)I)cc1 [diiodomethyl-p-tolylsulfone, 1-[(diiodomethyl)sulfonyl]-4-methylbenzene]	100 ppm	–
O=C1c2ccccc2C(=O)N1SC(F)(Cl)Cl [fluor-folpet, N-(fluorodichloromethylthio)-phthalimide]	insoluble	–
[O-]n1ccccc1=S.[O-]n1ccccc1=S.[Zn+2] [ZPT, Bis[1-hydroxy-2(1H)pyridinethionato]zinc]	15 ppm	–
[O-][n+]1ccccc1[S][Na] [SPT, (2-pyridinethiol-1-oxide) sodium]	530000 ppm	530000
CCCCNC(=O)OCC#CI [IPBC, 3-iodo-2-propyl butyl carbamate]	156 ppm	156
N#CSCSc1nc2ccccc2s1 [TCMTB, 2-(4-thiocyanomethylthio)benzothiazole]	330 ppm	–
c1ccc2[nH]c(-c3cscn3)nc2c1 [TBZ, 2-(4-thiazolyl)-benzimidazole]	30 ppm	30
